From paper PMC10652874, “Investigation into the mechanism of action of the antimicrobial peptide epilancin 15X” (Frontiers in Microbiology, 2023)

Legend:
S. carnosus TM300 [1] = assay: Membrane permeability study with propidium iodide (flow cytometry); type: cell-based, Staphylococcus carnosus; settings: S. carnosus TM300, 20 min exposure, 0.5x, 1x, 4x MIC, n = 3
Description: Cultures of S. carnosus TM300 and B. subtilis BSF2470 were grown to OD600 1.0 and diluted to OD600 0.1 in fresh BHI or LB medium, respectively. The culture was then combined with a final concentration of 25 μM PI (ThermoFisher P3566), 1 mM HEPES, and 1 mM glucose. […] Another two tubes were prepared without antibiotic treatment as controls. The culture was analyzed with a BD Biosciences LSR II flow cytometer for S. carnosus and a BD Biosciences LSRFortessa for B. subtilis using excitation at 488 nm with an argon laser and measurement of emission through a band-pass filter at 695/40 nm. A minimum of 30,000 events were detected for each sample. The experiment was repeated three times, and the mean PI uptake value was determined. The results were calibrated such that the mean PI uptake from the 4x MIC nisin-treated cell culture was set as 100% PI uptake.

[2] = system: DNA biosynthesis in S. carnosus TM300; assay: Macromolecular synthesis assay: 14C-thymidine incorporation into DNA; type: cell-based, Staphylococcus carnosus; settings: S. carnosus TM300, 2× MIC, three independent experiments
Description: (§1) Radiolabel incorporation experiments were carried out similarly as previously described but using S. carnosus ([Wu et al., 2019]). The OD600 of parallel nonradioactive cultures was measured at each time point to normalize the measured radioactivity and minimize effects due to cell death and growth inhibition. The radiolabeled reagents and their corresponding positive and negative antibiotic controls were as follows. […] All experiments were conducted independently three times.
(§2) Figure S3. Thre e in de pen den t ex perime nts of incorporation of (A) 14C- acetic acid into fatty acids, (B) 14C- thymi din e into D NA, (C) 3H-uridi ne into RNA, (D) 14C- lab el ed ami no acids into protei n, and (E) 14C- label ed GlcNAc into cell w all in S. carnosus TM300 cells treated with vario u s antimicro bia l agents. T he p ercent i nco rpo ratio n at 0 min was measured after incubati ng the cel l cultur e with 0.8 μCi/mL radioactive precursors for 15 min. Then 0.5x, 1x, 2x, or 4x MIC epilanci n 15X and 2x MIC controls were added to the cell cultur e (t=0), and t he percent incorporation was measur ed ov er time. Positive controls a re gr een and negative controls are black (cells o nly) an d blu e (co mpo und w ith mo d e o f actio n unr elate d to th e a ssay i n que stio n). […]

[3] = system: RNA biosynthesis in S. carnosus TM300; assay: Macromolecular synthesis assay: 3H-uridine incorporation into RNA; type: cell-based, Staphylococcus carnosus; settings: S. carnosus TM300, 2× MIC, three independent experiments
Description: as §1, §2

B. subtilis ATCC 6633 = assay: Fluorescence and bright field (Airyscan) microscopy; type: cell-based, Bacillus subtilis
Description: Standard microscope slides coated with poly-D-lysine (R&D Systems, 34–392 − 000101) overnight were washed with water and sterilized in ethanol. Overnight bacterial culture was centrifuged at 4,500 ×g and the pellet was resuspended gently three times in fresh PBS to remove the media background. Then 20 μL of cell culture in PBS and 180 μL of PBS were loaded on each slide and incubated at room temperature for 30 min. Next, 1 mL of PBS was used to wash the slides at least five times to remove unadhered cells. A final concentration of 200 nM epilancin 15X-TAMRA in 200 μL of PBS was applied to each slide and incubated at room temperature for 30 min. PBS was used to wash the slides at least five times to wash away unbound Epilancin 15X. A final concentration of 10% formaldehyde (Thermo Scientific, PI28906) and 2.5% glutaraldehyde (Fisher Chemical, O2957–1) in PBS was applied to each slide and incubated for 30 min. Three times 1 mL of PBS was applied to wash away excess fixing solution. A drop of ProLong Glass Antifade Mountant (Invitrogen, P36982) was applied to each slide, covered with a glass coverslip (Ibidi, NC0601315), and dried overnight protected from light. All micrographs were captured using a Zeiss LSM 880 Airyscan microscope (Carl R. Woese Institute for Genomic Biology, UIUC). […]

S. carnosus TM300 [4] = assay: Bright field (Airyscan) microscopy; type: cell-based, Staphylococcus carnosus; settings: S. carnosus TM300, 0.5 MIC
S. carnosus TM300 [5] = assay: Lipid protection assay (MIC with lipid-supplemented growth medium); type: cell-based, Staphylococcus carnosus; settings: for Epilancin MIC: S. carnosus TM300
Description: MIC determination was performed in a 96-well microtiter plate as described previously ([Wu et al., 2019]). Sensitive bacterial culture was grown in the appropriate medium (BHI for S. carnosus; LB for B. subtilis) at 37°C overnight. The culture was diluted to 10^5 CFU/mL in medium in each well. Epilancin 15X or its analog was dissolved in water and serially diluted to obtain final concentrations of 20, 10, 5, 2.5, 1.25, 0.625, 0.3125, 0.156, 0.078, 0.039, 0.019, and 0.009 μM. OD600 readings were obtained after 18 h using a Synergy H4 Hybrid Multi-Mode Microplate Reader (BioTeK). Cell-free untreated medium, and untreated cell culture were used as negative controls. The MIC of nisin against B. subtilis BSF2470 was determined following the same methods.
The possibility of direct interaction between epilancin 15X and specific lipids was examined through lipid protection assays. […] In an agar diffusion assay, purified S. aureus LTA antagonized the bioactivity of epilancin 15X but not nisin A (Supplementary Figure S5A).

[6] = Liposome leakage assay using flow cytometry (HaloTag / AF488 ligand); type: biochemical; settings: 1 μM peptide, 37°C, 1 h
[7] = B. subtilis LTA (-) added, ~100 µM
[8] = S. aureus LTA (-) added, ~100 µM

Question: What does the source list for Epilancin 15X?
Answer: PI uptake (membrane disruption) (S. carnosus TM300 [1]): increase; DNA biosynthesis (14C-thymidine incorporation) [2]: considerably stronger effect than that observed with the respective negative controls; RNA biosynthesis (3H-uridine incorporation) [3]: considerably stronger effect than that observed with the respective negative controls; aggregation phenotype of cells (brightfield) (B. subtilis ATCC 6633): Aggregation and chaining of cells was observed; aggregation phenotype of cells (brightfield) (S. carnosus TM300 [4]): Aggregation and chaining of cells was observed; Increase in MIC compared to WT (S. carnosus TM300 [5]; [7]): 8 X; Increase in MIC compared to WT (S. carnosus TM300 [5]; Cardiolipin (-) added, 130 µM): 8 X; Increase in MIC compared to WT (S. carnosus TM300 [5]; DGDG added, 100 µM): did not display any protection affect; Increase in MIC compared to WT (S. carnosus TM300 [5]; POPC added, 130 µM): did not display any protection affect; Increase in MIC compared to WT (S. carnosus TM300 [5]; POPE added, 500 µM): did not display any protection affect; Increase in MIC compared to WT (S. carnosus TM300 [5]; POPG (-) added, 100 µM): 4 X; Increase in MIC compared to WT (S. carnosus TM300 [5]; [8]): > 16 X; Epilancin MIC (S. carnosus TM300 [5]; [7]): 2.5 µM; Epilancin MIC (S. carnosus TM300 [5]; Cardiolipin (-) added, 130 µM): 2.5 µM; Epilancin MIC (S. carnosus TM300 [5]; DGDG added, 100 µM): 0.31 µM; Epilancin MIC (S. carnosus TM300 [5]; POPC added, 130 µM): 0.31 µM; Epilancin MIC (S. carnosus TM300 [5]; POPE added, 500 µM): 0.31 µM; Epilancin MIC (S. carnosus TM300 [5]; POPG (-) added, final concentration 100 µM): 1.25 µM; Epilancin MIC (S. carnosus TM300 [5]; [8]): > 5 µM; increase of epilancin 15X MIC (S. carnosus TM300 [5]; growth medium supplemented with 2.5 μM LTA isolated from S. aureus): at least 8 fold; increase of epilancin 15X MIC (S. carnosus TM300 [5]; growth medium supplemented with POPG): at least 4 fold; increase of epilancin 15X MIC (S. carnosus TM300 [5]; growth medium supplemented with cardiolipin): at least 4 fold; fluorescence signal (pore formation) ([6]; POPC-cholesterol liposomes with 0.1% lipid II): did not induce pore formation; fluorescence signal (pore formation) compared to buffer control ([6]; POPC-cholesterol liposomes without lipid II): no increase in fluorescence signal
